We go through 28 molecules from PubChem BioAssay AID192 (DTP/NCI, 2004).

SMILES strings stand for the structures. Several values for one entry are separate records, joined by “and”; a condition that tells them apart may be missing. Identical values can stand only once. Inconclusive results and toxic doses are left out. Bridge positions count the residues as written; N and C are the ends. Square brackets hold non-standard residues; d marks the D form. Peptide text beside a SMILES is read from it. I, II: the chains in the order shown. * marks the point of attachment. Quinoxaline2carbonyl = O=C(c1cnc2ccccc2n1)*; NMeV = CN[CH](C(=O)O)C(C)C; NMeC = CN[CH](CS)C(=O)O

This experiment deals with BDF1 mice, B16 melanoma ip, median survival T/C. Briefly: NCI In Vivo Anticancer Drug Screen. Data for tumor model B16 Melanoma (intraperitoneal) in B6D2F1 (BDF1) mice. As to conditions: endpoint: median survival time, higher = longer survival. The method, boiled down: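 Compounds were tested in mice carrying transplantable tumors. Survival or tumor size was recorded, and each value is the treated-group measurement (T) divided by that of the vehicle-treated control group (C).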

Where [1] appears, read: dose: 100.0 mg/kg/injection, schedule: Q01DX009 (ip), vehicle: saline with Tween-80.
[2] abbreviates: dose: 200.0 mg/kg/injection, schedule: Q01DX009 (ip), vehicle: saline with Tween-80.
The mark [3] stands for this setting: dose: 400.0 mg/kg/injection, schedule: Q01DX009 (ip), vehicle: saline with Tween-80.
The mark [4] stands for this setting: dose: 25.0 mg/kg/injection, schedule: Q01DX009 (ip), vehicle: saline with Tween-80.
The mark [5] stands for this setting: dose: 50.0 mg/kg/injection, schedule: Q01DX009 (ip), vehicle: saline with Tween-80.
[6] abbreviates: dose: 100.0 mg/kg/injection, schedule: Q01DX009 (ip), vehicle: Klucel (hydroxypropylcellulose) (HPC).
Setting [7] is: dose: 100.0 mg/kg/injection, schedule: Q04DX003 (ip), vehicle: Klucel (hydroxypropylcellulose) (HPC).
[8] abbreviates: dose: 200.0 mg/kg/injection, schedule: Q01DX009 (ip), vehicle: Klucel (hydroxypropylcellulose) (HPC).
[9] abbreviates: dose: 200.0 mg/kg/injection, schedule: Q04DX003 (ip), vehicle: Klucel (hydroxypropylcellulose) (HPC).
Setting [10] is: dose: 400.0 mg/kg/injection, schedule: Q01DX009 (ip), vehicle: Klucel (hydroxypropylcellulose) (HPC).
The mark [11] stands for this setting: dose: 400.0 mg/kg/injection, schedule: Q04DX003 (ip), vehicle: Klucel (hydroxypropylcellulose) (HPC).
Where [12] appears, read: dose: 50.0 mg/kg/injection, schedule: Q01DX009 (ip), vehicle: Klucel (hydroxypropylcellulose) (HPC).
Where [13] appears, read: dose: 100.0 mg/kg/injection, schedule: Q01DX009 (ip), vehicle: saline.
[14] abbreviates: dose: 200.0 mg/kg/injection, schedule: Q01DX009 (ip), vehicle: saline.
Setting [15] is: dose: 12.5 mg/kg/injection, schedule: Q01DX009 (ip), vehicle: saline with Tween-80.
The mark [16] stands for this setting: dose: 6.25 mg/kg/injection, schedule: Q01DX009 (ip), vehicle: other.
Where [17] appears, read: dose: 12.5 mg/kg/injection, schedule: Q01DX009 (ip), vehicle: other.
Setting [18] is: dose: 25.0 mg/kg/injection, schedule: Q01DX009 (ip), vehicle: other.
Setting [19] is: dose: 6.25 mg/kg/injection, schedule: Q01DX009 (ip), vehicle: saline with Tween-80.
[20] abbreviates: dose: 0.75 mg/kg/injection, schedule: Q01DX009 (ip), vehicle: saline.
Where [21] appears, read: dose: 1.5 mg/kg/injection, schedule: Q01DX009 (ip), vehicle: saline.

Regarding `CC(=O)CC(=O)OCc1ccccc1`, the T/C by setting is: under setting [1], 107 % of control; under setting [2], 105 % of control; under setting [3], 100 % of control.
As to `CCS(=O)(=O)OCCCl`, the T/C is 104 % of control under setting [4], 100 % of control under setting [5] and 103 % of control under setting [1].
As to `Nc1cc2nc3ccccc3sc-2cc1=O`, the T/C by setting is: under setting [5], 93 % of control; under setting [1], 98 % of control; under setting [2], 94 % of control.
Turning to `Cc1cccc(NC(=O)NC(C)C)c1C`, the T/C runs as follows: under setting [6], 100 % of control; under setting [7], 103 % of control; under setting [8], 96 % of control; under setting [9], 107 % of control; under setting [10], 93 % of control; under setting [11], 100 % of control.
With `Cc1cc(=O)[nH]c(N/N=C/c2ccc(N(C)C)cc2)n1`, the T/C runs as follows: under setting [1], 100 % of control; under setting [2], 95 % of control; under setting [3], 97 % of control.
The matching figures for `CCCCNC(=O)Nc1ccccc1Cl`: 100 % of control, 98 % of control and 98 % of control.
For the molecule `CCCCNC(=O)OCC(C)(CCC)COC(N)=O` (centres undefined), the T/C by setting is: under setting [12], 92 % of control; under setting [6], 92 % of control; under setting [8], 94 % of control.
With `O=C(COc1ccc(Cl)cc1)Nc1ccc(Cl)cc1`, the T/C reads like this: under setting [4], 90 % of control; under setting [5], 92 % of control; under setting [1], 92 % of control.
As to `CCCCN(CCCC)C(Cl)=Nc1ccccc1`, the T/C reads like this: (dose: 6.25 mg/kg/injection, schedule: Q01DX009 (ip), vehicle: Klucel (hydroxypropylcellulose) (HPC)) 89 % of control and 99 % of control; (dose: 12.5 mg/kg/injection, schedule: Q01DX009 (ip), vehicle: Klucel (hydroxypropylcellulose) (HPC)) 101 % of control and 102 % of control; (dose: 25.0 mg/kg/injection, schedule: Q01DX009 (ip), vehicle: Klucel (hydroxypropylcellulose) (HPC)) 101 % of control; under setting [12], 96 % of control and 103 % of control; under setting [6], 93 % of control and 105 % of control; under setting [8], 88 % of control and 100 % of control.
Consider `Cc1ccccc1N(CC1CO1)CC1CO1` (centres undefined), for which the T/C is 152 % of control under setting [5] and 180 % of control under setting [1].
Take `O=C([O-])C[n+]1ccccc1`: the T/C was 108 % of control under setting [13] and 103 % of control under setting [14].
With `C#CC(C)(C)OCC(CCl)OC(N)=O` (centres undefined), the T/C is 91 % of control under setting [15]; 100 % of control under setting [4]; 104 % of control under setting [5]; 93 % of control under setting [1]; 95 % of control under setting [2].
Consider `N#CSc1ccc(NN)cc1`, for which the T/C by setting is: under setting [16], 96 % of control; under setting [17], 114 % of control; under setting [18], 99 % of control.
Turning to `O=C(O)C1OC1c1ccccc1` (centres undefined), the T/C reads like this: under setting [1], 97 % of control; under setting [2], 102 % of control; under setting [3], 100 % of control.
Take `CCOC(=O)c1cnc(NN)nc1Nc1cc(Cl)cc(Cl)c1`: the T/C is 97 % of control under setting [19], 101 % of control under setting [15] and 91 % of control under setting [4].
For `Cc1ccc(Nc2ccc([N+](=O)[O-])cc2[N+](=O)[O-])cc1C`, the T/C is 98 % of control under setting [6], 97 % of control under setting [8] and 96 % of control under setting [10].
The matching figures for `Cc1ccc(N=P(c2ccccc2)(c2ccccc2)c2ccccc2)cc1`: 94 % of control, 108 % of control and 91 % of control.
`ClCCN(CC#CCCCC#CCN(CCCl)CCCl)CCCl`: the T/C by setting is: (dose: 1.56 mg/kg/injection, schedule: Q01DX009 (ip), vehicle: saline) 111 % of control; (dose: 3.12 mg/kg/injection, schedule: Q01DX009 (ip), vehicle: saline) 123 % of control; (dose: 12.5 mg/kg/injection, schedule: Q01DX009 (ip), vehicle: saline) 173 % of control; (dose: 25.0 mg/kg/injection, schedule: Q01DX009 (ip), vehicle: saline) 156 % of control.
On to `Cc1cc(NS(=O)(=O)c2ccc(N)cc2)no1`, for which the T/C under setting [7] is 97 % of control, the T/C under setting [9] is 97 % of control and the T/C under setting [11] is 93 % of control.
Turning to `Cc1ccc(S(=O)(=O)[O][Pb]([CH3])([CH3])[CH3])cc1`, the T/C (dose: 0.18 mg/kg/injection, schedule: Q01DX009 (ip), vehicle: saline) was 97 % of control; the T/C (dose: 0.37 mg/kg/injection, schedule: Q01DX009 (ip), vehicle: saline) was 92 % of control; the T/C under setting [20] is 104 % of control; the T/C under setting [21] was 97 % of control.
As for `CCCCCCCC(O)CCC` (centres undefined), the T/C is 105 % of control under setting [6], 97 % of control under setting [8] and 93 % of control under setting [10].
With `CC1NC(=O)C(NC(=O)c2cnc3ccccc3n2)COC(=O)C(C(C)C)N(C)C(=O)C2CSSCC(C(=O)N(C)C(C(C)C)C(=O)OCC(NC(=O)c3cnc4ccccc4n3)C(=O)NC(C)C(=O)N2C)N(C)C1=O` (centres undefined) (I: Quinoxaline2carbonyl-SA[NMeC][NMeV] / II: Quinoxaline2carbonyl-SA[NMeC][NMeV]; ester I:1-II:C, I:C-II:1; disulfide I:3-II:3; configuration not given here), the T/C (dose: 3.0 micrograms/kg/injection, schedule: Q01DX009 (ip), vehicle: Klucel (hydroxypropylcellulose) (HPC)) was 111 % of control; the T/C (dose: 6.0 micrograms/kg/injection, schedule: Q01DX009 (ip), vehicle: Klucel (hydroxypropylcellulose) (HPC)) is 122 % of control; the T/C (dose: 22.5 micrograms/kg/injection, schedule: Q01DX009 (ip), vehicle: Klucel (hydroxypropylcellulose) (HPC)) is 169 % of control; the T/C (dose: 24.0 micrograms/kg/injection, schedule: Q01DX009 (ip), vehicle: Klucel (hydroxypropylcellulose) (HPC)) is 151 % of control; the T/C (dose: 45.0 micrograms/kg/injection, schedule: Q01DX009 (ip), vehicle: Klucel (hydroxypropylcellulose) (HPC)) is 187 % of control; the T/C (dose: 48.0 micrograms/kg/injection, schedule: Q01DX009 (ip), vehicle: Klucel (hydroxypropylcellulose) (HPC)) is 161 % of control. Besides, where the note is “dose: 96.0 micrograms/kg/injection, schedule: Q01DX009 (ip), vehicle: Klucel (hydroxypropylcellulose) (HPC)”, the T/C was 188 % of control.
In the case of `COC1C(OC(=O)c2ccc(C)[nH]2)C(O)C(Oc2ccc3c(O)c(NC(=O)c4ccc(O)c(CC=C(C)C)c4)c(=O)oc3c2Cl)OC1(C)C` (centres undefined), the T/C under setting [16] is 101 % of control; the T/C under setting [17] is 97 % of control and 124 % of control; the T/C under setting [18] is 90 % of control and 91 % of control; the T/C (dose: 50.0 mg/kg/injection, schedule: Q01DX009 (ip), vehicle: other) is 94 % of control.
In the case of `NC(N)=NOCC[C@@H](N)C(=O)O`, the T/C (dose: 50.0 mg/kg/injection, schedule: Q01DX009 (ip), vehicle: saline) is 105 % of control; the T/C under setting [13] was 101 % of control; the T/C under setting [14] is 100 % of control; the T/C (dose: 400.0 mg/kg/injection, schedule: Q01DX009 (ip), vehicle: saline) was 99 % of control.
With `CC(=O)N(C)c1ccc(/C=C2\C=Cc3ccccc32)cc1`, the T/C runs as follows: under setting [19], 96 % of control; under setting [15], 100 % of control; under setting [4], 102 % of control.
On to `Cc1[nH]c(N)nc(=S)c1CCC(=O)Nc1ccc(C(=O)NC(CCC(=O)O)C(=O)O)cc1` (centres undefined), for which the T/C reads like this: under setting [5], 101 % of control; under setting [1], 101 % of control; under setting [2], 100 % of control; under setting [3], 110 % of control.
On to `COc1cc(OC)c(/C=C/c2cc[n+](C)c3ccccc23)c(OC)c1`, for which the T/C under setting [20] was 105 % of control; the T/C under setting [21] is 95 % of control; the T/C (dose: 3.0 mg/kg/injection, schedule: Q01DX009 (ip), vehicle: saline) was 97 % of control.
`Cc1c(N=CN(C)C)c(=O)n(-c2ccccc2)n1C`: the T/C (dose: 97.0 mg/kg/injection, schedule: Q04DX003 (ip), vehicle: Klucel (hydroxypropylcellulose) (HPC)) is 97 % of control; the T/C (dose: 187.5 mg/kg/injection, schedule: Q04DX003 (ip), vehicle: Klucel (hydroxypropylcellulose) (HPC)) was 105 % of control; the T/C (dose: 375.0 mg/kg/injection, schedule: Q04DX003 (ip), vehicle: Klucel (hydroxypropylcellulose) (HPC)) is 87 % of control.
